Where two headings read alike, the source gives them in different places.

What all share (type): cell-based
The target in experiment [1] is T1, hTLR7 (human Toll-like receptor 7) (Homo sapiens, UniProt Q9NYK1).
T1 construct: host or cells: HEK-Blue hTLR7 (HEK293-derived reporter cells)
T1 sequence (Q9NYK1 27-1049): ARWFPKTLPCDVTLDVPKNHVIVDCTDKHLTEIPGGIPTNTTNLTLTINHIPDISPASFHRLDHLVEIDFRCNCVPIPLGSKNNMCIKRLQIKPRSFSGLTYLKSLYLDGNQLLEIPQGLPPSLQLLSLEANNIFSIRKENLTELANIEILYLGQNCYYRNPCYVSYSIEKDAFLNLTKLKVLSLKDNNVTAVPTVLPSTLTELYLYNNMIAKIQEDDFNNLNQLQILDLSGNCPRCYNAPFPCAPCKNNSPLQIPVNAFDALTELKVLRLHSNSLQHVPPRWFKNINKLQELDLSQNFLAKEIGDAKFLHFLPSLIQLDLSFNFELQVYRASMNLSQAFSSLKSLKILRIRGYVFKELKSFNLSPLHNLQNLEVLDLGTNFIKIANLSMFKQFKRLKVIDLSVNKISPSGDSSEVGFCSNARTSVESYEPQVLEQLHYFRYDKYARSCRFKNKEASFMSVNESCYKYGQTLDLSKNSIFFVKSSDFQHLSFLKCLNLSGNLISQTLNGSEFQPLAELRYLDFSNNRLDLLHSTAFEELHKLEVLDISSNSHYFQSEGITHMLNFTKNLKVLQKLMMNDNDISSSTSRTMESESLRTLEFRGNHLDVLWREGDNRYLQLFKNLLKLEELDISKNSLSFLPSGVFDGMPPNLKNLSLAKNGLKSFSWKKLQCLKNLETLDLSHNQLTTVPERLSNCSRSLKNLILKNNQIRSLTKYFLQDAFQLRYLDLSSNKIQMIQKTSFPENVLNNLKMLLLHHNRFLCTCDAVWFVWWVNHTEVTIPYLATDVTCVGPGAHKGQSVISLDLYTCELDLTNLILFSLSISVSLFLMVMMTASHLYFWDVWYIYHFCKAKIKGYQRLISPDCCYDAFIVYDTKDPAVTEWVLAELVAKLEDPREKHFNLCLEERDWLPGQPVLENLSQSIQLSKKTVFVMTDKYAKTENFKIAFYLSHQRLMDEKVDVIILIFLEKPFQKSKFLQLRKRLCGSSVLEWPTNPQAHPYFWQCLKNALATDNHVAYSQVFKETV
The experiment can be described thus: hTLR7 cell assay (HEK-Blue hTLR7 reporter cells). Particulars: 24 hours, OD 650 nm. The essentials:
(§1)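 HEK-Blue reporter cells in HEK-Blue Detection medium (50000 cells/mL) were exposed to test compounds for 24 hours at 37° C, 5% CO2. Agonism was read from supernatant incubated 1 hour at 37° C with QUANTI-Blue, measured as optical density at 650 nm.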

The target in experiment [2] is T2, hTLR8 (human Toll-like receptor 8) (Homo sapiens, UniProt Q9NR97).
T2 construct: host or cells: HEK-Blue hTLR8 (HEK293-derived reporter cells)
T2 sequence (Q9NR97 27-1041): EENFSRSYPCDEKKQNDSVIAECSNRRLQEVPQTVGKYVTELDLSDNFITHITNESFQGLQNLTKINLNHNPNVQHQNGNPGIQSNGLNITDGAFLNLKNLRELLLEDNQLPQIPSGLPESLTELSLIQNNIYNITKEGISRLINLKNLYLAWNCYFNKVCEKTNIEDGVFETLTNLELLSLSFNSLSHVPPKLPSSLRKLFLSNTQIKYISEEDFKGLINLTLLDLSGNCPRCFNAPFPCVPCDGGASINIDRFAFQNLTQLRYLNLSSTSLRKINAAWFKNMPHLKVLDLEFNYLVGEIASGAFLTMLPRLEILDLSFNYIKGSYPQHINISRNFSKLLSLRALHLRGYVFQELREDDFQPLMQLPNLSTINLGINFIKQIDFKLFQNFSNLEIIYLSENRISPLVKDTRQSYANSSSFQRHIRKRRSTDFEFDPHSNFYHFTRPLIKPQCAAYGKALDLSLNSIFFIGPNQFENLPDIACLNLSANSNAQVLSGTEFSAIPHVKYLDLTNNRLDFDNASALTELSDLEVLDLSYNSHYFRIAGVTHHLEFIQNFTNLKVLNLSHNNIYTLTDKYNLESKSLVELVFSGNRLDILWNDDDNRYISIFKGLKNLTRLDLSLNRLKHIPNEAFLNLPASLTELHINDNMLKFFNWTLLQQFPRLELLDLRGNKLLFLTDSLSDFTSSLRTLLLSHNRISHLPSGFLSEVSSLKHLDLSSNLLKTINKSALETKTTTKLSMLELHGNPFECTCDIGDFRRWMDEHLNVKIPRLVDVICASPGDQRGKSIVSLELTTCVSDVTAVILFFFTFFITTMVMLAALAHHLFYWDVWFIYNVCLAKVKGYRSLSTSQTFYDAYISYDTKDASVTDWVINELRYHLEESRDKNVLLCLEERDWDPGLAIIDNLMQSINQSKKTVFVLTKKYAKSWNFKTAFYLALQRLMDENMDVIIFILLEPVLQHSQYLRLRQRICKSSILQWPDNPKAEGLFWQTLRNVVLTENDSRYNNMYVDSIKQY
The experiment can be described thus: hTLR8 cell assay (HEK-Blue hTLR8 reporter cells). Particulars: 24 hours, OD 650 nm. The essentials: as §1

Experiment [3] deals with human PBMC (human peripheral blood mononuclear cells). The experiment can be described thus: PBMC screening assay: induction of TNF-α production. As to conditions: read-out: EC50 (μM) TNF-α (hPBMC). The procedure: The payload compounds of Formula (II′) were assayed to evaluate the induction of TNF-α production in human PBMC (human peripheral blood mononuclear cells).
Human peripheral blood mononuclear cells (PBMC) were obtained from Allcells. […] PBMC were incubated for 24 hours at 37° C. in a 5% CO2 humidified incubator. The following day PBMC plates were centrifuged at 500×g for 5 minutes and the growth media was removed. 200 μL of compound prepared in growth media at a series of diluted concentrations ranging from 2.54 nM to 50 μM were added to PBMC in duplicate and incubated for 24 hours at 37° C. in a 5% CO2 incubator. Prior to supernatant harvest, cells were spun at 500×g for 5 minutes to remove cell debris. TNF-α activity was assessed in the supernatant by ELISA (Elabscience) per the manufacturer's instructions. Optical density at 450 nm (ELISA) was analyzed using a plate reader.

Setting [4] is: human PBMC, 24 hours, TNF-α by ELISA, class symbols.

As a reminder, the EC50 is the midpoint of the concentration-response curve. Take `CC(C)(O)Cn1c(COC2CC2)nc2c(N)nc3cc(Cc4cccc(CN)c4)ccc3c21` [Compound 55, 1-(4-amino-7-(3-(aminomethyl)benzyl)-2-(cyclopropoxymethyl)-1H-imidazo[4,5-c]quinolin-1-yl)-2-methylpropan-2-ol]: the EC50 was less than 1000 nM in experiment [1], less than 5000 nM in experiment [2] and less than 0.64 µM in experiment [3] (setting [4]).

`CCCCc1nc2c(N)nc3cc(C(C)c4cccc(CN)c4)ccc3c2n1CC(C)(C)O` (stereo not drawn) [Compound 56, 1-(4-amino-7-(1-(3-(aminomethyl)phenyl)ethyl)-2-butyl-1H-imidazo[4,5-c]quinolin-1-yl)-2-methylpropan-2-ol]: the results for the EC50 in experiment [1], in experiment [2] and in experiment [3] (setting [4]) were less than 1000 nM, less than 5000 nM and less than 0.64 µM, respectively.

Consider `CCCCc1nc2c(N)nc3cc(Cc4ccc5c(c4)C(N)CCC5)ccc3c2n1CC(C)(C)O` (stereo not drawn) [Compound 57, 1-(4-amino-7-((8-amino-5,6,7,8-tetrahydronaphthalen-2-yl)methyl)-2-butyl-1H-imidazo[4,5-c]quinolin-1-yl)-2-methylpropan-2-ol], for which the EC50 was less than 1000 nM in experiment [1]; less than 5000 nM in experiment [2]; less than 0.64 µM in experiment [3] (Homo sapiens, PBMC, 24 h).

`CCCCc1nc2c(N)nc3cc(Cc4ccc5c(c4)CC(N)CC5)ccc3c2n1CC(C)(C)O` (stereo not drawn) [Compound 58, 1-(4-amino-7-((7-amino-5,6,7,8-tetrahydronaphthalen-2-yl)methyl)-2-butyl-1H-imidazo[4,5-c]quinolin-1-yl)-2-methylpropan-2-ol]: the EC50 in experiment [1] was less than 1000 nM; in experiment [2], less than 5000 nM; in experiment [3] (setting [4]) it was less than 0.64 µM.

With `CCCCc1nc2c(N)nc3cc(Cc4ccc5c(c4)CCNC5)ccc3c2n1CC(C)(C)O` [Compound 59, 1-(4-amino-2-butyl-7-((1,2,3,4-tetrahydroisoquinolin-6-yl)methyl)-1H-imidazo[4,5-c]quinolin-1-yl)-2-methylpropan-2-ol], the concentration for a half-maximal effect (EC50) in experiment [1] is less than 1000 nM; in experiment [2], less than 5000 nM; in experiment [3] (setting [4]), less than 0.64 µM.

On to `CCCCc1nc2c(N)nc3cc(Cc4ccc5c(c4)CNCC5)ccc3c2n1CC(C)(C)O` [Compound 60, 1-(4-amino-2-butyl-7-((1,2,3,4-tetrahydroisoquinolin-7-yl)methyl)-1H-imidazo[4,5-c]quinolin-1-yl)-2-methylpropan-2-ol], for which the results for the EC50 in experiment [1], in experiment [2] and in experiment [3] (setting [4]) were less than 1000 nM, less than 5000 nM and less than 0.64 µM, respectively.

Take `CCCCc1nc2c(N)nc3cc(Cc4ccc5c(c4)C(N)CC5)ccc3c2n1CC(C)(C)O` (stereo not drawn) [Compound 61, 1-(4-amino-7-((3-amino-2,3-dihydro-1H-inden-5-yl)methyl)-2-butyl-1H-imidazo[4,5-c]quinolin-1-yl)-2-methylpropan-2-ol]: the EC50 in experiment [1] is less than 1000 nM; in experiment [2], less than 5000 nM; in experiment [3] (setting [4]), less than 0.64 µM.

For the molecule `CCCCc1nc2c(N)nc3cc(Cc4cccc(OCCN)c4)ccc3c2n1CC(C)(C)O` [Compound 62, 1-(4-amino-7-(3-(2-aminoethoxy)benzyl)-2-butyl-1H-imidazo[4,5-c]quinolin-1-yl)-2-methylpropan-2-ol], the EC50 is less than 1000 nM in experiment [1], less than 5000 nM in experiment [2] and less than 0.64 µM in experiment [3] (setting [4]).

Regarding `CCCCc1nc2c(N)nc3cc(Cc4cccc(N5CCNCC5)c4)ccc3c2n1CC(C)(C)O` [Compound 63, 1-(4-amino-2-butyl-7-(3-(piperazin-1-yl)benzyl)-1H-imidazo[4,5-c]quinolin-1-yl)-2-methylpropan-2-ol], the values for the EC50 in experiment [1], in experiment [2] and in experiment [3] (setting [4]) were less than 1000 nM, less than 5000 nM and less than 0.64 µM, respectively.

Turning to `CCCCc1nc2c(N)nc3cc(Cc4cccc(C(=O)NCCN)c4)ccc3c2n1CC(C)(C)O` [Compound 64, 3-((4-amino-2-butyl-1-(2-hydroxy-2-methylpropyl)-1H-imidazo[4,5-c]quinolin-7-yl)methyl)-N-(2-aminoethyl)benzamide], the EC50 in experiment [1] was 1000 to 10000 nM; in experiment [2] it was less than 5000 nM; in experiment [3] (setting [4]), less than 0.64 µM.

As to `CCCCc1nc2c(N)nc3cc(Cc4cccc(NC(=O)CN)c4)ccc3c2n1CC(C)(C)O` [Compound 65, 2-amino-N-(3-((4-amino-2-butyl-1-(2-hydroxy-2-methylpropyl)-1H-imidazo[4,5-c]quinolin-7-yl)methyl)phenyl)acetamide], the EC50 in experiment [1] was 1000 to 10000 nM; in experiment [2] it was less than 5000 nM; in experiment [3] (setting [4]), less than 0.64 µM.

As to `CCCCc1nc2c(N)nc3cc(Cc4cccc(CNC(=O)CN)c4)ccc3c2n1CC(C)(C)O` [Compound 66, 2-amino-N-(3-((4-amino-2-butyl-1-(2-hydroxy-2-methylpropyl)-1H-imidazo[4,5-c]quinolin-7-yl)methyl)benzyl)acetamide], the EC50 in experiment [1] was 1000 to 10000 nM; in experiment [2], less than 5000 nM; in experiment [3] (setting [4]), more than 0.64 µM.

With `CCCCc1nc2c(N)nc3cc(Cc4cc(CN)ccc4F)ccc3c2n1CC(C)(C)O` [Compound 67, 1-(4-amino-7-(5-(aminomethyl)-2-fluorobenzyl)-2-butyl-1H-imidazo[4,5-c]quinolin-1-yl)-2-methylpropan-2-ol], the half-maximal effective concentration (EC50) is less than 1000 nM in experiment [1], less than 5000 nM in experiment [2] and less than 0.64 µM in experiment [3] (setting [4]).

`CCCCc1nc2c(N)nc3cc(Cc4ccc(F)c(CN)c4)ccc3c2n1CC(C)(C)O` [Compound 68, 1-(4-amino-7-(3-(aminomethyl)-4-fluorobenzyl)-2-butyl-1H-imidazo[4,5-c]quinolin-1-yl)-2-methylpropan-2-ol]: the EC50 in experiment [1] is less than 1000 nM; in experiment [2], less than 5000 nM; in experiment [3] (setting [4]), less than 0.64 µM.

As for `CCCCc1nc2c(N)nc3cc(Cc4ccc(CN)s4)ccc3c2n1CC(C)(C)O` [Compound 69, 1-(4-amino-7-((5-(aminomethyl)thiophen-2-yl)methyl)-2-butyl-1H-imidazo[4,5-c]quinolin-1-yl)-2-methylpropan-2-ol], the EC50 was less than 1000 nM in experiment [1], less than 5000 nM in experiment [2] and less than 0.64 µM in experiment [3] (setting [4]).
